This assay in a line: Binding affinity to GABAA receptor. Set-up: unit not given here.

This is an account of results in ChEMBL document CHEMBL1141675, “QSAR modeling of the interaction of flavonoids with GABA(A) receptor” (Eur J Med Chem, 2008).

With `COc1ccc2oc(-c3ccccc3N)cc(=O)c2c1`, the logKi was 0.544.
Under `O=c1cc(-c2ccccc2F)oc2ccc(Cl)cc12` stands -0.38; under `O=c1cc(-c2cccc([N+](=O)[O-])c2)oc2ccc(Cl)cc12`, -2.1; under `COc1c(O)cc2oc(-c3ccc(O)cc3)cc(=O)c2c1O`, 0.
With `O=c1cc(-c2ccccc2O)oc2ccc3ccccc3c12` the figure was -1.57; with `O=c1cc(-c2ccccc2)oc2ccc(Br)cc12`, -1.16; with `COc1cc2oc(-c3ccc(O)cc3)cc(=O)c2c(O)c1OC`, 1.36.
Under `O=c1cc(-c2cccc([N+](=O)[O-])c2)oc2ccc([N+](=O)[O-])cc12` stands -1.58.
Compound `COc1c(O)cc2oc(-c3ccccc3O)cc(=O)c2c1O` had a logKi of -1.42.
With `O=c1cc(-c2ccccc2)oc2c(Br)c(O)c(Br)c(O)c12` the figure was -0.155; with `O=c1cc(-c2ccccc2O)oc2cc(O)ccc12`, -0.252; with `O=c1cc(-c2ccccc2)oc2c(I)c(O)c(I)c(O)c12`, 0.
With `O=c1cc(-c2ccccc2)oc2ccccc12` the figure was 0; with `COc1ccc(-c2cc(=O)c3cc(Cl)ccc3o2)cc1`, 0.097; with `O=c1cc(-c2ccc(F)cc2)oc2ccc(Br)cc12`, -0.939.
`O=c1cc(-c2cccc(Cl)c2)oc2ccc(Br)cc12` had a logKi of -1.77.
Under `Cc1cccc(-c2cc(=O)c3cc(Br)ccc3o2)c1` stands -0.812; under `O=c1cc(-c2cccc(F)c2)oc2ccc(F)cc12`, -0.036; under `O=c1cc(-c2ccc(F)cc2)oc2ccccc12`, 0.556.
With `O=c1cc(-c2cccc(Br)c2)oc2ccc([N+](=O)[O-])cc12` the figure was -1.6; with `O=c1cc(-c2ccc(O)cc2)oc2cc(O)cc(O)c12`, 0.602; with `COc1ccc2oc(-c3cccc(Br)c3)cc(=O)c2c1`, 0.
Compound `O=c1cc(-c2cccc(Br)c2)oc2ccc(F)cc12` yielded a logKi of -0.627.
Under `COc1ccccc1-c1cc(=O)c2ccccc2o1` stands 1.51.
`O=c1cc(-c2cccc(Cl)c2)oc2ccc(F)cc12`: the logKi is -0.701.
Under `O=c1cc(-c2cccc(O)c2)oc2ccc(F)cc12` stands 0.4; under `O=c1cc(-c2ccccc2O)oc2ccc(O)cc12`, -1.47.
`O=c1cc(-c2ccccc2)oc2ccc(Cl)cc12` came in with a logKi of -0.785.
Under `Cc1cccc(-c2cc(=O)c3cc(C)ccc3o2)c1` stands -0.682; under `Cc1ccc2oc(-c3cccc([N+](=O)[O-])c3)cc(=O)c2c1`, -2.25; under `COc1cccc(-c2cc(=O)c3cc(Br)ccc3o2)c1`, -0.215.
With `O=c1cc(-c2ccccc2)oc2ccc([N+](=O)[O-])cc12` the figure was -0.561.
With `Cc1ccc2oc(-c3cccc(Br)c3)cc(=O)c2c1` the figure was -1.89; with `COc1cc(O)c2c(=O)cc(-c3ccccc3)oc2c1`, 1.7; with `O=c1cc(-c2cccc([N+](=O)[O-])c2)oc2ccc(Br)cc12`, -3.
In the case of `Cc1ccc2oc(-c3ccccc3)cc(=O)c2c1`, the logKi is -0.903.
Compound `COc1ccc2oc(-c3ccccc3)cc(=O)c2c1` gave a logKi of -0.066.
Under `COc1c(O)c(OC)c2oc(-c3ccccc3)cc(=O)c2c1O` stands -0.699; under `COc1c(O)cc2oc(-c3ccccc3)cc(=O)c2c1O`, -0.051.
Under `O=c1cc(-c2ccc(F)cc2)oc2ccc(F)cc12` stands 0.398; under `O=c1cc(-c2cccc([N+](=O)[O-])c2)oc2ccc(F)cc12`, -0.745.
Under `O=c1cc(-c2ccccc2)oc2ccc(O)cc12` stands 0.422; under `Cc1cccc(-c2cc(=O)c3ccccc3o2)c1`, 1.
On to `COc1cccc(-c2cc(=O)c3cc(F)ccc3o2)c1`, for which the logKi worked out at 0.398.
Under `O=c1cc(-c2ccccc2)oc2cc(O)c(O)c(O)c12` stands 0.747; under `O=c1cc(-c2ccc(Br)cc2)oc2ccc([N+](=O)[O-])cc12`, -1.6; under `O=c1cc(-c2cccc(O)c2)oc2ccc(Br)cc12`, -0.22.
Under `O=c1cc(-c2cccc(F)c2)oc2ccccc12` stands 0.55; under `O=c1cc(-c2cccc(Cl)c2)oc2ccccc12`, -0.212.
Under `O=c1cc(-c2cccc(Cl)c2)oc2ccc(Cl)cc12` stands -1.64.
Compound `O=c1cc(-c2ccccc2)oc2ccc(F)cc12` returned a logKi of 0.653.
With `O=c1cc(-c2ccccc2)oc2cc(O)cc(O)c12` the figure was 0.477.
Compound `COc1c(O)cc(O)c2c(=O)cc(-c3ccccc3)oc12` yielded a logKi of 0.182.
Under `O=c1cc(-c2cccc([N+](=O)[O-])c2)oc2ccccc12` stands -0.545.
With `COc1ccc(-c2cc(=O)c3cc(Br)ccc3o2)cc1` the figure was 0.322; with `COc1cccc(-c2cc(=O)c3cc(Cl)ccc3o2)c1`, -0.072; with `O=c1cc(-c2cccc(Br)c2)oc2ccccc12`, -0.384.
Regarding `O=c1cc(-c2ccccc2O)oc2ccccc12`, the logKi was -0.678.
Under `O=c1cc(-c2ccc([N+](=O)[O-])cc2)oc2ccc(Br)cc12` stands -0.699; under `O=c1cc(-c2ccccc2)oc2cc(O)ccc12`, 0.623.
Take `O=c1cc(-c2cccc(Br)c2)oc2ccc(O)cc12`: the logKi came out at 0.
With `O=c1cc(-c2cccc(F)c2)oc2ccc(Cl)cc12` the figure was -0.932; with `COc1ccccc1-c1cc(=O)c2cc(O)ccc2o1`, 0.976; with `COc1c(O)c(OC)c2oc(-c3ccccc3O)cc(=O)c2c1O`, -2.21.
`O=c1cc(-c2ccccc2Cl)oc2cc(O)cc(O)c12` showed a logKi of 0.903.
On to `O=c1cc(-c2ccccc2[N+](=O)[O-])oc2ccc(Br)cc12`, for which the logKi was -0.68.
With `O=c1cc(-c2cccc(Br)c2)oc2ccc(Br)cc12` the figure was -1.72; with `O=c1cc(-c2ccccc2F)oc2ccc(Br)cc12`, -0.424.
`COc1cccc(O)c1-c1cc(=O)c2c(O)c(OC)c(OC)c(OC)c2o1` had a logKi of -0.444.
As to `O=c1cc(-c2cccc(Br)c2)oc2ccc(Cl)cc12`, the logKi was -1.64.
With `COc1cccc(-c2cc(=O)c3ccccc3o2)c1` the figure was 0.38.
Under `O=c1c(O)c(-c2ccc(O)cc2)oc2cc(O)cc(O)c12` stands 1.97; under `O=c1cc(-c2cccc(O)c2)oc2ccc(Cl)cc12`, -0.07.
Under `COc1cc2oc(-c3ccc(O)c(O)c3)cc(=O)c2c(O)c1OC` stands 2.3.
Take `O=c1cc(-c2ccccc2O)oc2cc(O)cc(O)c12`: the logKi is -1.12.
The compound `O=c1cc(-c2ccccc2F)oc2cc(O)cc(O)c12` gave a logKi of 0.903.
Compound `O=c1cc(-c2ccc(F)cc2)oc2ccc(Cl)cc12` gave a logKi of -0.742.
Consider `O=c1cc(-c2cccc(F)c2)oc2ccc(Br)cc12`, for which the logKi was -1.38.
